Measurements reported in paper PMC7540527, “Synthesis of Antiviral Perfluoroalkyl Derivatives of Teicoplanin and Vancomycin” (Chemmedchem, 2020).
Converted amounts (≈) assume the structure as drawn. Structures can show the parent of a compound that is named as a salt. Where two headings read alike, the source gives them in different places.

Legend:
[1] = tested on: influenza A and B viruses; assay type: cell-based, influenza virus
[2] = tested on: E. faecalis ATCC 51299 VanB; test: Antibacterial MIC; assay type: cell-based, Enterococcus faecalis; details: for MIC: Enterococcus faecalis, ATCC51299, read-out: MIC E. faecalis ATCC 51299 VanB
[3] = tested on: Vero cells; details: African green monkey
[4] = tested on: Bacillus subtilis ATCC 6633; test: Antibacterial MIC; assay type: cell-based; details: for MIC: Bacillus subtilis, ATCC6633, read-out: MIC Bacillus subtilis ATCC 6633
[5] = tested on: S. aureus MRSA ATCC 33591; test: Antibacterial MIC; assay type: cell-based, Staphylococcus aureus; details: for MIC: Staphylococcus aureus, read-out: MIC S. aureus MRSA ATCC 33591
[6] = tested on: MDCK cells
[7] = tested on: HeLa cells; details: human
[8] = tested on: Staphylococcus epidermidis ATCC 35984 biofilm; test: Antibacterial MIC; assay type: cell-based
[9] = tested on: Staphylococcus aureus MSSA ATCC 29213; test: Antibacterial MIC; assay type: cell-based; details: for MIC: Staphylococcus aureus, read-out: MIC Staphylococcus aureus MSSA ATCC 29213
[10] = tested on: E. faecalis 15376 VanA; test: Antibacterial MIC; assay type: cell-based, Enterococcus faecalis; details: for MIC: Enterococcus faecalis, 15376VANA, read-out: MIC E. faecalis 15376 VanA
[11] = tested on: Enterococcus faecalis ATCC 29212; test: Antibacterial MIC; assay type: cell-based; details: for MIC: Enterococcus faecalis, ATCC29212, read-out: MIC Enterococcus faecalis ATCC 29212
[12] = tested on: HEL human embryonic lung fibroblast cells
[13] = tested on: panel of Gram-positive bacteria; assay type: cell-based
[14] = tested on: influenza A/H3N2 A/Victoria/361/11; test: microbe, parasite or virus in culture; assay type: cell-based, influenza A virus
[15] = tested on: influenza A/H1N1 A/Ned/378/05; test: microbe, parasite or virus in culture; assay type: cell-based, influenza A virus
[16] = tested on: influenza B virus B/Ned/537/05; test: CPE reduction assay for influenza virus in MDCK cells, influenza B; assay type: cell-based
Method: The CPE reduction assay for influenza virus was described in full detail in previous publications.41 The virus strains were: A/PR/8/34 (A/H1 N1); A/Virginia/ATCC3/2009 (A/H1 N1pdm); A/HK/7/87 (A/H3 N2); B/Ned/537/05; and B/HK/5/72. On day 0, Madin‐Darby canine kidney (MDCK) cells in 96‐well plates were infected with influenza virus at a multiplicity of infection (MOI) of 0.0004 plaque forming units (PFU) per cell. After three days incubation at 35 °C, virus‐induced CPE and compound cytotoxicity were scored by microscopy, after which the data were confirmed by formazan‐based MTS cell viability assay (CellTiter 96® AQueous One Solution Cell Proliferation Assay from Promega). The antiviral effect was expressed as the compound concentration producing 50 % inhibition of the virus‐induced CPE (EC50). Compound cytotoxicity was expressed as the compound concentration causing minimal changes in cell morphology (MCC), and 50 % cytotoxic concentration (CC50) based on MTS assay.42

[17] = in vitro; details: dog

Compound	Activity against influenza strains (in words) [1]	MIC [2]	CC50 [3]	MIC [4]	MIC [5]	CC50 ([6]; dog)	Cytotoxicity MCC (minimum cytotoxic concentration) ([6]; dog)	CC50 [7]	Cytotoxicity MCC [7]	MIC Staphylococcus epidermidis ATCC 35984 biofilm [8]	MIC [9]	MIC [10]	MIC [11]	CC50 [12]	Cytotoxicity in MDCK cells (in words) [6]	other results
CC(=O)NC1C(OC2c3ccc(c(Cl)c3)Oc3cc4cc(c3O)Oc3ccc(cc3Cl)CC3NC(=O)C(n5cc(COCCOCCOCCOCCOCCCC(F)(F)C(F)(F)C(F)(F)C(F)(F)F)nn5)c5ccc(O)c(c5)Oc5cc(O)cc(c5)C(NC3=O)C(=O)NC4C(=O)NC3C(=O)NC2C(=O)NC(C(=O)O)c2cc(O)cc(O)c2-c2cc3ccc2O)OC(CO)C(O)C1O (centres unmarked) [Compound 16]	robust activity	1 mg/L (≈ 0.521 µM)	> 100 µM	2 mg/L (≈ 1.04 µM)	0.5 mg/L (≈ 0.26 µM)	97 µM	100 µM	> 100 µM	> 100	0.5 mg/L (≈ 0.26 µM)	0.5 mg/L (≈ 0.26 µM)	2 mg/L (≈ 1.04 µM)	1 mg/L (≈ 0.521 µM)	> 100 µM	–	–
CC(C)C[C@H](C(=O)N[C@H]1C(=O)N[C@@H](CC(N)=O)C(=O)N[C@H]2C(=O)N[C@H]3C(=O)N[C@H](C(=O)N[C@H](C(=O)O)c4cc(O)cc(O)c4-c4cc3ccc4O)[C@H](O)c3ccc(c(Cl)c3)Oc3cc2cc(c3O)Oc2ccc(cc2Cl)[C@H]1O)n1cc(COCCOCCOCCOCCOCCCC(F)(F)C(F)(F)C(F)(F)C(F)(F)F)nn1 [Compound 12]	–	16 mg/L (≈ 9.71 µM)	–	32 mg/L (≈ 19.4 µM)	8 mg/L (≈ 4.85 µM)	4 µM	42 µM	> 100 µM	> 100	8 mg/L (≈ 4.85 µM)	4 mg/L (≈ 2.43 µM)	16 mg/L (≈ 9.71 µM)	8 mg/L (≈ 4.85 µM)	–	highly cytotoxic	Antibacterial activity (in words) [13]: moderate activity
CN[C@H](CC(C)C)C(=O)N[C@H]1C(=O)N[C@@H](CC(N)=O)C(=O)N[C@H]2C(=O)N[C@H]3C(=O)N[C@H](C(=O)N[C@H](C(=O)O)c4cc(O)cc(O)c4-c4cc3ccc4O)[C@H](O)c3ccc(c(Cl)c3)Oc3cc2cc(c3O[C@@H]2O[C@H](CO)[C@@H](O)[C@H](O)[C@H]2O[C@H]2C[C@](C)(N)[C@H](O)[C@H](C)O2)Oc2ccc(cc2Cl)[C@H]1O [VAN, vancomycin]	–	128 mg/L (≈ 88.3 µM)	–	0.5 mg/L (≈ 0.345 µM)	0.5 mg/L (≈ 0.345 µM)	–	–	–	–	2 mg/L (≈ 1.38 µM)	0.5 mg/L (≈ 0.345 µM)	256 mg/L (≈ 177 µM)	1 mg/L (≈ 0.69 µM)	–	–	–
CC(C)C[C@H](C(=O)N[C@H]1C(=O)N[C@@H](CC(N)=O)C(=O)N[C@H]2C(=O)N[C@H]3C(=O)N[C@H](C(=O)N[C@H](C(=O)O)c4cc(O)cc(O)c4-c4cc3ccc4O)[C@H](O)c3ccc(c(Cl)c3)Oc3cc2cc(c3O)Oc2ccc(cc2Cl)[C@H]1O)n1cc(COCCOCCOCCOCCOCCCC(F)(F)C(F)(F)C(F)(F)C(F)(F)C(F)(F)C(F)(F)C(F)(F)C(F)(F)F)nn1 [Compound 13]	–	32 mg/L (≈ 17.3 µM)	–	16 mg/L (≈ 8.66 µM)	8 mg/L (≈ 4.33 µM)	0.8 µM	0.8 µM	> 100 µM	≥ 100	16 mg/L (≈ 8.66 µM)	8 mg/L (≈ 4.33 µM)	256 mg/L (≈ 139 µM)	4 mg/L (≈ 2.16 µM)	–	highly cytotoxic	Antibacterial activity (in words) [13]: moderate activity
CC(=O)NC1C(OC2c3ccc(c(Cl)c3)Oc3cc4cc(c3O)Oc3ccc(cc3Cl)CC3NC(=O)C(n5cc(COCCOCCCC(F)(F)C(F)(F)C(F)(F)C(F)(F)C(F)(F)C(F)(F)C(F)(F)C(F)(F)F)nn5)c5ccc(O)c(c5)Oc5cc(O)cc(c5)C(NC3=O)C(=O)NC4C(=O)NC3C(=O)NC2C(=O)NC(C(=O)O)c2cc(O)cc(O)c2-c2cc3ccc2O)OC(CO)C(O)C1O (centres unmarked) [Compound 17]	robust activity	256 mg/L (≈ 129 µM)	> 100 µM	128 mg/L (≈ 64.4 µM)	16 mg/L (≈ 8.05 µM)	44 µM	100 µM	> 100 µM	> 100	16 mg/L (≈ 8.05 µM)	16 mg/L (≈ 8.05 µM)	256 mg/L (≈ 129 µM)	256 mg/L (≈ 129 µM)	> 100 µM	–	–
CN[C@H](CC(C)C)C(=O)N[C@H]1C(=O)N[C@@H](CC(N)=O)C(=O)N[C@H]2C(=O)N[C@H]3C(=O)N[C@H](C(=O)N[C@H](C(=O)O)c4cc(O)cc(O)c4-c4cc3ccc4O)[C@H](O)c3ccc(c(Cl)c3)Oc3cc2cc(c3O[C@@H]2O[C@H](CO)[C@@H](O)[C@H](O)[C@H]2O[C@H]2C[C@](C)(N)[C@H](O)[C@H](C)O2)Oc2ccc(cc2Cl)[C@H]1O [vancomycin⋅HCl]	–	–	–	–	–	–	>100 µM	–	–	–	–	–	–	–	–	EC50 ([14]; Influenza A virus, H3N2, MDCK, read-out: Antiviral EC50 A/H3N2 CPE): > 100 µM; EC50 ([14]; Influenza A virus, H3N2, MDCK, read-out: Antiviral EC50 A/H3N2 MTS): > 100 µM; EC50 ([15]; Influenza A virus, H1N1, MDCK, read-out: Antiviral EC50 A/H1N1 CPE): > 100 µM; EC50 ([15]; Influenza A virus, H1N1, MDCK, read-out: Antiviral EC50 A/H1N1 MTS): > 100 µM; EC50 ([16]; Influenza B virus, MDCK, read-out: Antiviral EC50 Influenza B CPE): > 100 µM; EC50 ([16]; Influenza B virus, MDCK, read-out: Antiviral EC50 Influenza B MTS): > 100 µM; CC50 [17]: > 100 µM
CC(=O)N[C@H]1[C@H](O[C@@H]2c3ccc(c(Cl)c3)Oc3cc4cc(c3O)Oc3ccc(cc3Cl)C[C@H]3NC(=O)[C@H](N=[N+]=[N-])c5ccc(O)c(c5)Oc5cc(O)cc(c5)[C@H](NC3=O)C(=O)N[C@H]4C(=O)N[C@H]3C(=O)N[C@@H]2C(=O)N[C@H](C(=O)O)c2cc(O)cc(O)c2-c2cc3ccc2O)O[C@H](CO)[C@@H](O)[C@@H]1O [Compound 14]	–	–	–	–	–	> 100 µM	>100 µM	–	–	–	–	–	–	–	–	–
CC(=O)NC1C(OC2c3ccc(c(Cl)c3)Oc3cc4cc(c3O)Oc3ccc(cc3Cl)CC3NC(=O)C(n5cc(COCCOCCOCCOCCOCCCC(F)(F)C(F)(F)C(F)(F)C(F)(F)C(F)(F)C(F)(F)C(F)(F)C(F)(F)F)nn5)c5ccc(O)c(c5)Oc5cc(O)cc(c5)C(NC3=O)C(=O)NC4C(=O)NC3C(=O)NC2C(=O)NC(C(=O)O)c2cc(O)cc(O)c2-c2cc3ccc2O)OC(CO)C(O)C1O (centres unmarked) [Compound 18]	without antiviral activity	32 mg/L (≈ 15.1 µM)	> 100 µM	4 mg/L (≈ 1.89 µM)	4 mg/L (≈ 1.89 µM)	4.2 µM	–	41 µM	–	4 mg/L (≈ 1.89 µM)	8 mg/L (≈ 3.77 µM)	32 mg/L (≈ 15.1 µM)	16 mg/L (≈ 7.55 µM)	> 100 µM	high cytotoxicity	–
CC(=O)NC1C(OC2c3ccc(c(Cl)c3)Oc3cc4cc(c3O)Oc3ccc(cc3Cl)CC3NC(=O)C(n5cc(COCCOCCCC(F)(F)C(F)(F)C(F)(F)C(F)(F)F)nn5)c5ccc(O)c(c5)Oc5cc(O)cc(c5)C(NC3=O)C(=O)NC4C(=O)NC3C(=O)NC2C(=O)NC(C(=O)O)c2cc(O)cc(O)c2-c2cc3ccc2O)OC(CO)C(O)C1O (centres unmarked) [Compound 15]	robust activity	4 mg/L (≈ 2.24 µM)	> 100 µM	0.5 mg/L (≈ 0.28 µM)	0.5 mg/L (≈ 0.28 µM)	> 100 µM	100 µM	43 µM	–	0.5 mg/L (≈ 0.28 µM)	0.5 mg/L (≈ 0.28 µM)	1 mg/L (≈ 0.559 µM)	0.5 mg/L (≈ 0.28 µM)	> 100 µM	–	Cytotoxicity MCC [3]: > 100
teicoplanin [reference compound]	–	–	–	–	–	–	–	–	–	2 mg/L	–	–	–	–	–	MIC E. faecalis ATCC 51299 VanB ([2]; vanB gene positive): 4 mg/L; EC50 ([14]; read-out: Antiviral EC50 A/H3N2 CPE): > 100 µM; EC50 ([14]; read-out: Antiviral EC50 A/H3N2 MTS): > 100 µM; EC50 ([15]; read-out: Antiviral EC50 A/H1N1 CPE): > 100 µM; EC50 ([15]; read-out: Antiviral EC50 A/H1N1 MTS): > 100 µM; MIC Bacillus subtilis ATCC 6633 [4]: 0.5 mg/L; EC50 ([16]; MDCK cells, B/Ned/537/05, MTS assay, read-out: Antiviral EC50 Influenza B MTS): > 100 µM; EC50 ([16]; MDCK cells, B/Ned/537/05, visual CPE scoring, read-out: Antiviral EC50 Influenza B CPE): > 100 µM; MIC S. aureus MRSA ATCC 33591 ([5]; methicillin-resistant): 0.5 mg/L; CC50 [6]: > 100 µM; Cytotoxicity MCC (minimum cytotoxic concentration) [6]: >100 µM; MIC Staphylococcus aureus MSSA ATCC 29213 ([9]; methicillin-sensitive): 0.5 mg/L; MIC E. faecalis 15376 VanA ([10]; vanA gene positive): 256 mg/L; MIC Enterococcus faecalis ATCC 29212 [11]: 2 mg/L
